Test [1] addresses T1, eIF-2-alpha kinase GCN2 (Homo sapiens, UniProt Q9P2K8). Briefly: Inhibition of GCN2 (unknown origin) using GFP-elF2a as substrate preincubated with substrate for 20 mins measured after 90 mins by Lanthascreen assay.
The target in test [2] is T1, eIF-2-alpha kinase GCN2. Briefly: Inhibition of GCN2-mediated elF2alpha phosphorylation in human U2OS cells after 2 hrs by immunocytochemistry. Type of test: cell-based.

Broadly, the IC50 is the point on the concentration scale where inhibition reaches its midpoint. Lower therefore signals higher potency.

T1 sequence (Q9P2K8 whole entry): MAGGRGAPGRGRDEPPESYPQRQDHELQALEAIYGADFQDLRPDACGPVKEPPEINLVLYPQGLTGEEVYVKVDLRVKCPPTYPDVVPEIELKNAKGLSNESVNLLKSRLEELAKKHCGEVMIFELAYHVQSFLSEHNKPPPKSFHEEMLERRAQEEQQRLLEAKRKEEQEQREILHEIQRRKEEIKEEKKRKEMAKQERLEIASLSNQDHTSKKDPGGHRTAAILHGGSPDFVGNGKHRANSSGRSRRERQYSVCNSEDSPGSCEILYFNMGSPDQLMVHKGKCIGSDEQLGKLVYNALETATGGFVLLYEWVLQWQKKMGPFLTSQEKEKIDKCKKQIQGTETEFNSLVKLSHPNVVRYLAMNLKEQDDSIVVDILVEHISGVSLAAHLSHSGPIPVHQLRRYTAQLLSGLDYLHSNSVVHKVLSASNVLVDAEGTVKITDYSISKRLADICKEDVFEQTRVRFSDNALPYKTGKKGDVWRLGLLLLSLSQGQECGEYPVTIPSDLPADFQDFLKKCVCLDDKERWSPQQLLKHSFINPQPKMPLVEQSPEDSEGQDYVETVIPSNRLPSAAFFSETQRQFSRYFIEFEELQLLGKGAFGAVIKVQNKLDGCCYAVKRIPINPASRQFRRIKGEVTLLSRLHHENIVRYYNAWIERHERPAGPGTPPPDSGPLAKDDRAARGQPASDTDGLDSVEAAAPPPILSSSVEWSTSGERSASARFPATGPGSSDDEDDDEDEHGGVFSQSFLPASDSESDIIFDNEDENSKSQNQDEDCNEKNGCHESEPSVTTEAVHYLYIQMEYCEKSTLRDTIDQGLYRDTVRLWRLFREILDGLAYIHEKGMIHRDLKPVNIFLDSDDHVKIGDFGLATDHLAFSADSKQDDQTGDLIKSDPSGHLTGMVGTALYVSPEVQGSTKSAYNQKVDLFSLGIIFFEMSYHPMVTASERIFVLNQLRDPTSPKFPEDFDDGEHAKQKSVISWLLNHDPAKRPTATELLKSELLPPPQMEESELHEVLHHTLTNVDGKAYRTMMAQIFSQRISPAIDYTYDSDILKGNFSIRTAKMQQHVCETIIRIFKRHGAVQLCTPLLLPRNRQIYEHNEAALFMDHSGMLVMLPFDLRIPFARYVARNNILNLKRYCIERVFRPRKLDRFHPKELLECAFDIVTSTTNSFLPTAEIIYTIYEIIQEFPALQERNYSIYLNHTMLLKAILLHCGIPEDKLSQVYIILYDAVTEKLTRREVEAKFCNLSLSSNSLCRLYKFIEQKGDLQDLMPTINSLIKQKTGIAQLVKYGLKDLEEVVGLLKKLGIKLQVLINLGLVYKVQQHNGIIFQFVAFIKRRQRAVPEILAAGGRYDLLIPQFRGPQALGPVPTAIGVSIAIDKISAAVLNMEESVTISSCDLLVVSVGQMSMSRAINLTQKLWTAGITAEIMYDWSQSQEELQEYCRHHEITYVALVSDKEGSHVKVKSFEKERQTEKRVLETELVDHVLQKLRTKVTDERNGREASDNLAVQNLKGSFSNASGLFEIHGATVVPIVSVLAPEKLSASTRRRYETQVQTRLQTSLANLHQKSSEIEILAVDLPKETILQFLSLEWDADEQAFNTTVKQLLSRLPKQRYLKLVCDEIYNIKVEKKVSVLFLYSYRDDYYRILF

For the molecule `O[C@H]1CC[C@H](n2ccc(Nc3ncc4c(nnn4-c4ccc(Cl)c(F)c4)n3)n2)CC1`, the IC50 against eIF-2-alpha kinase GCN2 [1] and against eIF-2-alpha kinase GCN2 [2] was less than 300 nM each time.

As for `c1cc2cn[nH]c2cc1-n1nnc2nc(Nc3ccn(C4CCOCC4)n3)ncc21`, the half-maximal inhibitory concentration (IC50) against eIF-2-alpha kinase GCN2 [1] and against eIF-2-alpha kinase GCN2 [2] was less than 300 nM throughout.

With `CCn1ccc(Nc2ncc3c(nnn3-c3ccc(C(C)(C)OCCO)cc3)n2)n1`, the IC50 is less than 300 nM at eIF-2-alpha kinase GCN2 [1] and 300 nM on eIF-2-alpha kinase GCN2 [2].

With `CCOc1ccc(-n2nnc3nc(Nc4ccn(CCCC5CCNCC5)n4)ncc32)cc1`, the IC50 against eIF-2-alpha kinase GCN2 [1] and against eIF-2-alpha kinase GCN2 [2] was less than 300 nM each time.
